Data: US20020103228A1, “Composition and method for use of pyridinium derivatives in cosmetic and therapeutic applications” (TORRENT PHARMACEUTICALS LTD., priority 1999, published 2002)

Legend:
[1] = target: T1, AGE-BSA (Bos taurus, UniProt P02769); experiment: In-vitro AGE breaking activity by ELISA; assay type: biochemical, Bovine; conditions: 37° C., 24 hours
T1 construct: Bovine serum albumin (fraction V) (BSA); from tissue; host or cells: bovine serum (fraction V); glycated in house with 1.6 M glucose at 37 °C for 16 weeks
T1 sequence (P02769 25-607): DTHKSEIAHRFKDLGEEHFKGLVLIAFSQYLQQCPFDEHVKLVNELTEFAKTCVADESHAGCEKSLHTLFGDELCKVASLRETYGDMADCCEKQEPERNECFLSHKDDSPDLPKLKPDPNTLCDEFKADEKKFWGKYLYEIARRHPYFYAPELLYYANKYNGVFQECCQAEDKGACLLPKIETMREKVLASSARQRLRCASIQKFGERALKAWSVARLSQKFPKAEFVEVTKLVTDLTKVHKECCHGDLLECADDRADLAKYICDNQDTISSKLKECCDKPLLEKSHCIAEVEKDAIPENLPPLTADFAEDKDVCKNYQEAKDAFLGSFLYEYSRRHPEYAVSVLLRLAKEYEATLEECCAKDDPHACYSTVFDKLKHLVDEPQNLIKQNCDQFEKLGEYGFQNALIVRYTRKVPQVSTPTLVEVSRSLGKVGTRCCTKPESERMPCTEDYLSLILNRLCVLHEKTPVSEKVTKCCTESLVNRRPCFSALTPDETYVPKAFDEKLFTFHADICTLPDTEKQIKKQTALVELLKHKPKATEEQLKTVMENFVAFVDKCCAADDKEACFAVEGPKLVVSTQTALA
Procedure: AGE breaking activity has been confirmed by the screening procedure as mentioned below:
Methods of experiment: Elisa (Enzyme Linked Immunosorbent Assay)
160 mg/ml of protein, bovine serum albumin, BSA and 1.6M glucose sugar were dissolved in phosphate buffered saline, PBS. Sodium azide was added at 0.02% concentration as a preservative. The solution was filtered asceptically through a […] filter and kept for aging at 37° C. for 16 weeks. After 16 weeks the solution was dialyzed against PBS, aliquoted and stored at −20° C.
To determine the AGE breaking activity, 10 μg/ml of the 16 weeks AGE-BSA was incubated with different concentrations of the test compounds at 37° C. for 24 hours and AGE breaking activity of the test compounds by ELISA was determined.
ELISA was performed as follows
1. Different concentrations of 16 weeks AGE-BSA were coated on a microtiter plate as standard. Each concentration is coated in triplicates.
2. The test samples were coated on microtiter plate at a concentration of 5 ng to 20 ng per well in triplicates
3. The plate was incubated at 37° C. for one hour.
4. After incubation the plate was washed with PBST (PBS with 0.05% Tween 20).
5. Blocking with 5% skimmed milk in PBS at 37° C. for one hour was done.
6. The plate was washed with PBST.
7. Primary antibody against AGE-BSA was added and the plate is incubated at 37° C. for one hour.
8. The plate was washed with PBST
9. Secondary antibody anti rabbit HRPO (Horse-Radish Per Oxidase) conjugate was added and the plate is incubated at 37° C. for one hour.
10. The plate was washed with PBST.
11. Colour development with OPD (orthophenylenediamine dihydrochloride) and hydrogen peroxide was done.
12. OD (optical density) at (450 nm reading-620 nm reading) was measured after incubation at 37° C. for 15 minutes with Microplate ELISA Reader
The breaker activity of the compounds were determined by the following formula: [formula]
OD450-620Control=Absorbance of 20 ng AGE-BSA after incubation at 37° C. for 24 hours without test compound
OD450-620Test=Absorbance of 20 ng AGE-BSA after incubation at 37° C. for 24 hours with required concentration of test compound
Using specific examples, the % AGE breaking activity was calculated and recorded in Table 2.

[2] = Free radical scavenging activity on ABTS radical cation; assay type: biochemical
Procedure: This method measures the relative ability of free radical scavenging substances to scavenge the ABTS^.+ i.e. 2,2-Azino-bis-(3-ethyl benzo thiazoline-6-sulfonate) radical cation as compared to a standard amount of standard or free radical scavengers antioxidants. Incubation of ABTS with Peroxidase (metmyoglobin) and hydrogen peroxide results in the production of radical cation ABTS^.+. This species is blue-green in colour and can be detected at 730 nm. Antioxidants or free radical scavengers in the added sample that causes suppression of the color to a degree that is proportional to their concentration.
Preparation of Buffer Solutions
A. Phosphate Citrate Buffer (pH 5.0). 48.5 ml of 0.1M citric acid with sufficient 0.2M disodium hydrogen phosphate to produce 100 ml.
B. Phosphate Buffer Saline (PBS): Dissolve 40.0 g of NaCl, 1.0 g of KCl, 1.0 g of KH2PO4 and 3.05 g of Na2HPO4 in 1 liter milli-Q water. Dilute 200 ml of above solution to 1 liter with milli-Q water (pH 7.4-7.6).
C. 3 μM stock solution of Peroxidase was prepared in phosphate buffer saline pH 7.4(PBS).
D. 1.08 mM stock solution of Hydrogen peroxide was prepared in phosphate buffer saline pH 7.4 (PBS).
Preparation of ABTS Stock Solution
1 tablet (10 mg) was dissolved in phosphate citrate buffer (pH 5.0).
Preparation of ABTS Working Solution
5.0 ml of ABTS stock solution was diluted with PBS to 20 ml.
Preparation of Horse Radish Peroxidase Stock Solution
320 μg of the enzyme was dissolved in 2.5 ml of PBS.
Preparation of Hydrogen Peroxide (1.08 mM) Solution
12 μl of Hydrogen Peroxide (30% w/v) was diluted to 100 ml with PBS. […]
Preparation of ABTS Radical Stock Solution
To 18 ml of ABTS stock solution, 100 μl of Horseradish Peroxidase stock solution was added.
As soon as 1.5 ml of hydrogen peroxide solution was added to the above solution, blue-green colour of the ABTS radicals appeared. This solution was incubated at 30° C. for 30 min.
Preparation of Control Solution
980 μl of ABTS radical stock solution was added to an eppendorf tube. To it was added 100 μl of various PBS solution.
Preparation of test Solution
980 μl of ABTS radical stock solutions were added to different eppendorf tubes. To it were added 100 μl of various concentrations of drug solution.
Measurement of Absorbance (O.D)
The absorbance of control and test samples was recorded immediately at 730 nm taking PBS as blank.
Calculation: The percent antioxidant activity was calculated according to the formula. % Antioxidant activity=[O.D of test sample/O.D of control*100]−100.

COCCOC(=O)c1ccc[n+](CC(=O)c2ccc(Cl)cc2Cl)c1.[Br-] [Compound 22, 1-(2-(2′,4′-dichlorophenyl)-2-oxoethyl)-3-(2(methoxy)ethyloxycarbonyl)pyridinium bromide]
% Breakage ([1]; 10 mM test compound): 13% | % Breakage ([1]; 25 mM test compound): 41% | Relative Free Radical Scavenging Activity (%) on ABTS ([2]; 11.5 μM): 27.9% | Relative Free Radical Scavenging Activity (%) on ABTS ([2]; 23.0 μM): 50.9% | Relative Free Radical Scavenging Activity (%) on ABTS ([2]; 46.0 μM): 69.3% | Relative Free Radical Scavenging Activity (%) on ABTS ([2]; 92.5 μM): 79.7% | Relative Free Radical Scavenging Activity (%) on ABTS ([2]; 925 μM): 100%

CC(C)S(=O)(=O)NNC(=O)c1ccc[n+](CC(=O)c2cccs2)c1.[Br-] [Compound 50, 1-(2-thien-2′-yl-2-oxoethyl)-3-(isopropylsulfonyl hydrazinocarbonyl)pyridinium bromide]
% Breakage ([1]; 10 mM test compound): 31.45% | Relative Free Radical Scavenging Activity (%) on ABTS ([2]; 11.5 μM): 3.30% | Relative Free Radical Scavenging Activity (%) on ABTS ([2]; 23.0 μM): 23.06% | Relative Free Radical Scavenging Activity (%) on ABTS ([2]; 46.0 μM): 54.95% | Relative Free Radical Scavenging Activity (%) on ABTS ([2]; 92.5 μM): 89.31%

CCCCOC(=O)c1ccc[n+](CC(=O)Nc2ccccc2)c1.[Cl-] [Compound 93, 1-(2-Phenylamino-2-oxoethyl)-3-(n-butyloxycarbonyl)pyridinium chloride]
% Breakage ([1]; 10 mM test compound): 57% | Relative Free Radical Scavenging Activity (%) on ABTS ([2]; 11.5 μM): 8.5% | Relative Free Radical Scavenging Activity (%) on ABTS ([2]; 23.0 μM): 8.6% | Relative Free Radical Scavenging Activity (%) on ABTS ([2]; 46.0 μM): 9.6% | Relative Free Radical Scavenging Activity (%) on ABTS ([2]; 92.5 μM): 11.4% | Relative Free Radical Scavenging Activity (%) on ABTS ([2]; 925 μM): 25.0%

COCCNC(=O)c1ccc[n+](CC(=O)NC2CC2)c1.[Cl-] [Compound 40, 1-(2-cyclopropylamino-2-oxoethyl)-3-(2-methoxyethylaminocarbonyl)-pyridinium chloride]
% Breakage ([1]; 10 mM test compound): 12.38%

CS(=O)(=O)NNC(=O)c1cc(Br)c[n+](CC(=O)c2cccs2)c1.[Br-] [Compound 53, 1-(2-thien-2′-yl-2-oxoethyl)-3-(methanesulfonyl hydrazinocarbonyl)-5-bromo pyridinium bromide]
% Breakage ([1]; 2.5 mM test compound): 29.36%

CCOC(=O)C1CCCN1C(=O)C[n+]1cccc(C(=O)NNC(=O)c2ccc[n+](CC(=O)N3CCCC3C(=O)OCC)c2)c1.[Cl-].[Cl-] (stereo not shown) [Compound 59, N,N′-bis[3-carbonyl-1-(2-(2-ethoxycarbonylpyrrolidin-1-yl)-2-oxoethyl)pyridinium]hydrazine dichloride]
% Breakage ([1]; 10 mM test compound): 20.31%

CCOC(=O)C[n+]1cccc(C(=O)OCCOC(=O)c2ccccc2)c1.[Br-] [Compound 17, 1-(2-ethoxy-2-oxoethyl)-3-(2-(benzoyloxy)ethyloxycarbonyl)pyridinium bromide]
% Breakage ([1]; 10 mM test compound): 19%

O=C(NNC(=O)c1cccnc1Cl)c1ccc[n+](CC(=O)c2cccs2)c1.[Cl-] [Compound 42, 1-(2-thien-2′yl-2-oxoethyl)-3-(2-(2-chloro-3-pyridoyl)hydrazinocarbonyl)-pyridinium chloride]
% Breakage ([1]; 10 mM test compound): 12.51%

O=C(C[n+]1ccc(C(=O)NCCOC(=O)c2ccccc2)cc1)Nc1ccccc1.[Cl-] [Compound 66, 1-(2-phenylamino-2-oxoethyl)-4-[2-(benzoyloxy)ethylaminocarbonyl]pyridinium chloride]
% Breakage ([1]; 10 mM test compound): 19.07%

O=C(NNC(=O)c1ccc[n+](CC(=O)c2ccco2)c1)c1ccc[n+](CC(=O)c2ccco2)c1.[Br-].[Br-] [Compound 32, N,N′-bis[3-carbonyl-1-(2-furan-2′-yl-2-oxoethyl)pyridinium]hydrazine dibromide]
% Breakage ([1]; 10 mM test compound): 14%

CCCCNC(=O)c1ccc[n+](CC(=O)Nc2ccccc2)c1.[Cl-] [Compound 94, 1-(2-Phenylamino-2-oxoethyl)-3-(n-butylaminocarbonyl)pyridinium chloride]
% Breakage ([1]; 10 mM test compound): 27%

O=C(NNC(=O)c1ccc[n+](CC(=O)c2ccc(Cl)s2)c1)c1ccc[n+](CC(=O)c2ccc(Cl)s2)c1.[Cl-].[Cl-] [Compound 62, N,N′-bis[3-carbonyl-1-(2-(5-chlorothien-2-yl)-2-oxoethyl)pyridinium]hydrazine dichloride]
% Breakage ([1]; 10 mM test compound): 78.41%

Cc1ccc(C(=O)C[n+]2cccc(C(=O)NNC(=O)c3ccc[n+](CC(=O)c4ccc(C)s4)c3)c2)s1.[Cl-].[Cl-] [Compound 58, N,N′-bis[3-carbonyl-1-(2-(5-methylthien-2-yl)-2-oxoethyl)pyridinium]hydrazine dichloride]
% Breakage ([1]; 10 mM test compound): 81.95%

CCOC(=O)C[n+]1cccc(C(=O)NCCOC(=O)c2ccccc2)c1.[Br-] [Compound 7, 1-(2-ethoxy-2-oxoethyl)-3-(2-(benzoyloxy)ethylaminocarbonyl)pyridinium bromide]
% Breakage ([1]; 20 mM test compound): 36%

O=C(C[n+]1cccc(C(=O)NNC(=O)c2ccc[n+](CC(=O)c3ccccc3)c2)c1)c1ccccc1.[Br-].[Br-] [Compound 1, N,N′-bis[3-carbonyl-1-(2-phenyl-2-oxoethyl)-pyridinium]hydrazine dibromide]
% Breakage ([1]; 5 mM test compound): 13%

O=C(C[n+]1cccc(C(=O)NCCO)c1)Nc1ccccc1.[Cl-] [Compound 95, 1-(2-Phenylamino-2-oxoethyl)-3-((2-hydroxyethyl)aminocarbonyl)-pyridinium chloride]
% Breakage ([1]; 20 mM test compound): 48%

CCOC(=O)C1CCCN1C(=O)C[n+]1cccc(C(=O)NNS(C)(=O)=O)c1.[Cl-] (stereo not shown) [Compound 52, 1-(2-(2-ethoxycarbonylpyrrolidin-1-yl)-2-oxoethyl)-3-(methanesulfonyl hydrazinocarbonyl)pyridinium chloride]
% Breakage ([1]; 10 mM test compound): 25.34%

CC(=O)OCCOC(=O)c1ccc[n+](CC(=O)c2ccccc2)c1.[Br-] [Compound 16, 1-(2-phenyl-2-oxoethyl)-3-(2-(acetoxy)ethyloxycarbonyl)pyridinium bromide]
% Breakage ([1]; 10 mM test compound): 16%

COCCNC(=O)c1cc(Br)c[n+](CC(=O)c2cccs2)c1.[Cl-] [Compound 47, 1-(2-thien-2′-yl-2-oxoethyl)-3-((2-methoxyethyl)aminocarbonyl)-5-bromo pyridinium chloride]
% Breakage ([1]; 10 mM test compound): 32.38%

NC(=O)c1ccc[n+](CC(=O)c2cccs2)c1.[Br-] [Compound 85, 3-Carbonylamino-1-(2-thien-2′-yl-2-oxoethyl)-pyridinium bromide]
% Breakage ([1]; 10 mM test compound): 3%

CC(C)NC(=O)C[n+]1cccc(C(=O)NNS(C)(=O)=O)c1.[Cl-] [Compound 43, 1-(2-isopropylamino-2-oxoethyl)-3-(2-methylsulfonylhydrazinocarbonyl)-pyridinium chloride]
% Breakage ([1]; 10 mM test compound): 10.85%

Cc1ccc(C(=O)NNS(C)(=O)=O)c[n+]1CC(=O)c1cccs1.[Br-] [Compound 57, 1-(2-thien-2′-yl-2-oxoethyl)-3-(methanesulfonyl hydrazinocarbonyl)-6-methyl pyridinium bromide]
% Breakage ([1]; 1 mM test compound): 77.69%
